# What was measured:
# Assay type in all cases: in vivo
# [1] = tested on: field corn (Zea mays L., var. Dekalb 535, CORN); experiment: Post-emerge greenhouse test, crop damage rating; conditions: 14 days after application; for crop damage rating CORN: scale 0-100
# In short: (§1)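 Compounds in acetone with 0.25% v/v non-ionic surfactant were track-sprayed at 187 l/ha over plants at the 2-3 leaf stage, at 63 to 1000 g ai/ha. Pots were bottom-watered. Injury was scored visually 14 days later on a 0-100 scale, where 0 is no damage and 100 is complete plant death.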
# [2] = tested on: upland rice (Oryza sp., var.Tebonnet, RICE); experiment: Post-emerge greenhouse test, crop damage rating; conditions: 14 days after application; for crop damage rating RICE: scale 0-100
# In short: as §1
# [3] = tested on: field corn (Zea mays L., var. Dekalb 535, CORN); experiment: Pre-emerge greenhouse test, crop damage rating; conditions: 14 days after application, rating scale 0-100
# In short: (§2)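 Seeds sown in sandy loam mix one day before track-sprayer application of compounds in acetone at 125–1000 g ai/ha (187 l/ha), then surface-watered to incorporate and bottom-watered. Visual rating 14 days after application on a 0–100 scale (0 = no damage, 100 = all plants dead).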
# [4] = tested on: upland rice (Oryza sp., var.Tebonnet, RICE); experiment: Pre-emerge greenhouse test, crop damage rating; conditions: 14 days after application, rating scale 0-100
# In short: as §2
# [5] = tested on: soybean (Glycine max L., var. Pella 86, SOY); experiment: Pre-emerge greenhouse test, crop damage rating; parameters: key to SOY crop damage rating: 0 = no damage, 100 = complete death of all plants; conditions: 14 days after application, rating scale 0-100
# In short: as §2
# [6] = tested on: redroot pigweed (Amaranthus retroflexus, AMARE); experiment: Post-emerge greenhouse herbicide test, phytotoxicity rating; conditions: 14 days after application; for phytotoxicity rating AMARE: scale 0-100
# In short: as §1
# [7] = tested on: lambsquarters (Chenopodium album, CHEAL); experiment: as above; conditions: 14 days after application; for phytotoxicity rating CHEAL: scale 0-100
# In short: as §1
# [8] = tested on: green foxtail (Setaria viridis, SETVI); experiment: as above; conditions: 14 days after application; for phytotoxicity rating SETVI: scale 0-100
# In short: as §1
# [9] = tested on: large crabgrass (Digitaria sanguinalis, DIGSA); experiment: as above; conditions: 14 days after application; for phytotoxicity rating DIGSA: scale 0-100
# In short: as §1
# [10] = tested on: barnyardgrass (Echinochloa crusgalli, ECHCG); experiment: as above; conditions: 14 days after application; for phytotoxicity rating ECHCG: scale 0-100
# In short: as §1
# [11] = tested on: ivyleaf morningglory (Ipomoea hederacea, IPOHE); experiment: as above; conditions: 14 days after application; for phytotoxicity rating IPOHE: scale 0-100
# In short: as §1
# [12] = tested on: sicklepod (Cassia obtusifolia, CASOB); experiment: as above; conditions: 500 g al/ha, 14 days after application
# In short: as §1
# [13] = tested on: Johnsongrass (Sorghum halepense, SORHA); experiment: as above; conditions: 14 days after application; for phytotoxicity rating SORHA: scale 0-100
# In short: as §1
# [14] = tested on: velvetleaf (Abutilon theophrasti, ABUTH); experiment: as above; conditions: 14 days after application; for phytotoxicity rating ABUTH: scale 0-100
# In short: as §1
# [15] = tested on: soybean (Glycine max L., var. Pella 86, SOY); experiment: Post-emerge greenhouse test, crop damage rating; parameters: key to crop damage rating SOY: 0-100 scale: 0 = no damage, 100 = complete death of all plants; conditions: 14 days after application; for crop damage rating SOY: scale 0-100
# In short: as §1
# [16] = tested on: redroot pigweed (Amaranthus retroflexus, AMARE); experiment: Pre-emerge greenhouse herbicide test, phytotoxicity rating; conditions: 14 days after application, rating scale 0-100
# In short: as §2
# [17] = tested on: lambsquarters (Chenopodium album, CHEAL); experiment: as above; conditions: 14 days after application, rating scale 0-100
# In short: as §2
# [18] = tested on: green foxtail (Setaria viridis, SETVI); experiment: as above; conditions: 14 days after application, rating scale 0-100
# In short: as §2
# [19] = tested on: large crabgrass (Digitaria sanguinalis, DIGSA); experiment: as above; conditions: 14 days after application, rating scale 0-100
# In short: as §2
# [20] = tested on: barnyardgrass (Echinochloa crusgalli, ECHCG); experiment: as above; conditions: 14 days after application, rating scale 0-100
# In short: as §2
# [21] = tested on: ivyleaf morningglory (Ipomoea hederacea, IPOHE); experiment: as above; conditions: 14 days after application, rating scale 0-100
# In short: as §2
# [22] = tested on: common ragweed (Ambrosia artemisiifolia L., AMBEL); experiment: as above; conditions: 14 days after application, rating scale 0-100
# In short: as §2
# [23] = tested on: sicklepod (Cassia obtusifolia, CASOB); experiment: as above; conditions: 14 days after application, rating scale 0-100
# In short: as §2
# [24] = tested on: Johnsongrass (Sorghum halepense, SORHA); experiment: as above; conditions: 14 days after application, rating scale 0-100
# In short: as §2
# [25] = tested on: velvetleaf (Abutilon theophrasti, ABUTH); experiment: as above; conditions: 14 days after application, rating scale 0-100
# In short: as §2
# [26] = tested on: common ragweed (Ambrosia artemisiifolia L., AMBEL); experiment: Post-emerge greenhouse herbicide test, phytotoxicity rating; conditions: 14 days after application; for phytotoxicity rating AMBEL: scale 0-100
# In short: as §1
smiles,measurement,setting,value
Cn1c(C(F)(F)F)nc(-c2cc(Oc3ncccc3C(F)(F)F)c(Cl)cc2F)c1Cl [Compound 2-2],CORN crop damage rating (0-100),[1]; 500 g al/ha,20
same,RICE crop damage rating (0-100),[2]; 500 g al/ha,40
same,crop damage rating CORN,[3]; 500 g ai/ha,0
same,crop damage rating RICE,[4]; 500 g ai/ha,0
same,crop damage rating SOY,[5]; 500 g ai/ha,15
same,AMARE phytotoxicity rating (0-100),[6]; 500 g al/ha,95
same,CHEAL phytotoxicity rating (0-100),[7]; 500 g al/ha,90
same,SETVI phytotoxicity rating (0-100),[8]; 500 g al/ha,30
same,DIGSA phytotoxicity rating (0-100),[9]; 500 g al/ha,10
same,ECHCG phytotoxicity rating (0-100),[10]; 500 g al/ha,30
same,IPOHE phytotoxicity rating (0-100),[11]; 500 g al/ha,75
same,CASOB phytotoxicity rating (0-100),[12],0
same,SORHA phytotoxicity rating (0-100),[13]; 500 g al/ha,40
same,ABUTH phytotoxicity rating (0-100),[14]; 500 g al/ha,70
same,SOY crop damage rating (0-100),[15]; 500 g al/ha,35
same,phytotoxicity rating AMARE,[16]; 500 g ai/ha,100
same,phytotoxicity rating CHEAL,[17]; 500 g ai/ha,60
same,phytotoxicity rating SETVI,[18]; 500 g ai/ha,100
same,phytotoxicity rating DIGSA,[19]; 500 g ai/ha,20
same,phytotoxicity rating ECHCG,[20]; 500 g ai/ha,0
same,phytotoxicity rating IPOHE,[21]; 500 g ai/ha,60
same,phytotoxicity rating AMBEL,[22]; 500 g ai/ha,20
same,phytotoxicity rating CASOB,[23]; 500 g ai/ha,0
same,phytotoxicity rating SORHA,[24]; 500 g ai/ha,30
same,phytotoxicity rating ABUTH,[25]; 500 g ai/ha,10
same,AMBEL phytotoxicity rating (0-100),[26]; 500 g al/ha,25
O=c1n(-c2cc(Oc3ncc([N+](=O)[O-])s3)c(Cl)cc2F)c(=S)n2n1CCCC2 [Compound 8-36],crop damage rating CORN,[1]; rate 63 g ai/ha,10
same,crop damage rating CORN,[1]; rate 250 g ai/ha,10
same,crop damage rating RICE,[2]; rate 63 g ai/ha,40
same,crop damage rating RICE,[2]; rate 250 g ai/ha,30
same,CORN crop damage rating,[3]; Rate 125 g al/ha,0
same,CORN crop damage rating,[3]; Rate 250 g al/ha,20
same,RICE crop damage rating,[4]; Rate 125 g al/ha,30
same,RICE crop damage rating,[4]; Rate 250 g al/ha,70
same,SOY crop damage rating,[5]; Rate 125 g al/ha,0
same,SOY crop damage rating,[5]; Rate 250 g al/ha,100
same,phytotoxicity rating AMARE,[6]; rate 63 g ai/ha,100
same,phytotoxicity rating AMARE,[6]; rate 250 g ai/ha,100
same,phytotoxicity rating CHEAL,[7]; rate 63 g ai/ha,95
same,phytotoxicity rating CHEAL,[7]; rate 250 g ai/ha,99
same,phytotoxicity rating SETVI,[8]; rate 63 g ai/ha,0
same,phytotoxicity rating SETVI,[8]; rate 250 g ai/ha,30
same,phytotoxicity rating DIGSA,[9]; rate 63 g ai/ha,30
same,phytotoxicity rating DIGSA,[9]; rate 250 g ai/ha,60
same,phytotoxicity rating ECHCG,[10]; rate 63 g ai/ha,50
same,phytotoxicity rating ECHCG,[10]; rate 250 g ai/ha,40
same,phytotoxicity rating IPOHE,[11]; rate 63 g ai/ha,100
same,phytotoxicity rating IPOHE,[11]; rate 250 g ai/ha,95
same,phytotoxicity rating SORHA,[13]; rate 63 g ai/ha,30
same,phytotoxicity rating SORHA,[13]; rate 250 g ai/ha,90
same,phytotoxicity rating ABUTH,[14]; rate 63 g ai/ha,100
same,phytotoxicity rating ABUTH,[14]; rate 250 g ai/ha,100
same,crop damage rating SOY,[15]; rate 63 g ai/ha,30
same,crop damage rating SOY,[15]; rate 250 g ai/ha,90
same,AMARE phytotoxicity rating,[16]; Rate 125 g al/ha,100
same,AMARE phytotoxicity rating,[16]; Rate 250 g al/ha,100
same,CHEAL phytotoxicity rating,[17]; Rate 125 g al/ha,100
same,CHEAL phytotoxicity rating,[17]; Rate 250 g al/ha,100
same,SETVI phytotoxicity rating,[18]; Rate 125 g al/ha,80
same,SETVI phytotoxicity rating,[18]; Rate 250 g al/ha,99
same,DIGSA phytotoxicity rating,[19]; Rate 125 g al/ha,70
same,DIGSA phytotoxicity rating,[19]; Rate 250 g al/ha,80
same,ECHCG phytotoxicity rating,[20]; Rate 125 g al/ha,0
same,ECHCG phytotoxicity rating,[20]; Rate 250 g al/ha,70
same,IPOHE phytotoxicity rating,[21]; Rate 125 g al/ha,90
same,IPOHE phytotoxicity rating,[21]; Rate 250 g al/ha,70
same,AMBEL phytotoxicity rating,[22]; Rate 125 g al/ha,90
same,AMBEL phytotoxicity rating,[22]; Rate 250 g al/ha,100
same,CASOB phytotoxicity rating,[23]; Rate 125 g al/ha,90
same,CASOB phytotoxicity rating,[23]; Rate 250 g al/ha,70
same,SORHA phytotoxicity rating,[24]; Rate 125 g al/ha,20
same,SORHA phytotoxicity rating,[24]; Rate 250 g al/ha,50
same,ABUTH phytotoxicity rating,[25]; Rate 125 g al/ha,100
same,ABUTH phytotoxicity rating,[25]; Rate 250 g al/ha,100
same,phytotoxicity rating AMBEL,[26]; rate 63 g ai/ha,20
same,phytotoxicity rating AMBEL,[26]; rate 250 g ai/ha,20

# Source: patent publication US6479435B1, “Diaryl ethers and processes for their preparation and herbicidal and desiccant compositions containing them” (ISK Americas Incorporated, priority 1997, dated 2002)
